These results are taken from US6653064B1, “Method for identifying compounds useful in the therapy of bone disorders” (Boehringer Ingelheim International GmbH, priority 1999, dated 2003).

The test system of one assay is Fra-1 expression. The note with it: substance known to induce Fra-1 expression (Yoshioka et al., 1995); cited from earlier work.
Another assay concerns endogenous fra-1. The assay is described as follows: RT-PCR analysis of fra-1 transcripts in primary osteoblast cultures. Particulars: wild-type osteoblasts, cultures 7 days after plating, not expressed without stimulation. It is filed as cell-based, mice. The method, then:
To further investigate the consequences of Fra-1 expression on osteoblasts, primary osteoblasts were prepared from the calvariae of neonatal (6-8 days old) mice and differentiated in vitro. Calvariae were sequentially digested for 10 minutes in α-MEM containing 0.1% collagenase and 0.2% dispase. Cells isolated by fractions 2 to 5 were combined as an osteoblastic cell population, expanded for 2 days in α-MEM with 10% FCS and replated at a density of 10^4 cells per cm^2. After reaching confluency, medium was supplemented with 5 mM β-glycerophosphate and 100 μg/ml ascorbic acid. There was no difference in the proliferation between wild-type and transgenic osteoblasts. The time course of differentiation was followed by ALP activity and by the deposition of mineralized extracelluar matrix. For ALP activity measurement, cells were washed with PBS and sonicated in 10 mM Tris-HCl buffer (pH 8.0). ALP activity in the lysate was measured using a calorimetric assay (Sigma). […] In transgenic cultures, areas of mineralized extracellular matrix monitored by alizarine red S staining were first observed at day 12, when no stained areas were present in wild-type cultures (FIG. 5b). […]
5′-GTACCGAGACTACGGGGAACCGG-3′ SEQ. […] Exogenous and endogenous fra-1 was detected in transgenic osteoblasts, irrespective of induction by phorbol myristate acetate (PMA) (FIG. 5c). […]

As to `CC(C)(C)c1cc(O)ccc1O` [tert-butylhydroquinone], in the assay with Fra-1 expression, the “Fra-1 expression in cultured cells” value was “induce Fra-1 expression”. Turning to `CCCCCCCCCCCCCC(=O)O[C@@H]1[C@@H](C)[C@@]2(O)[C@@H](C=C(CO)C[C@]3(O)C(=O)C(C)=C[C@@H]23)[C@@H]2C(C)(C)[C@]12OC(C)=O` [PMA, phorbol myristate acetate], the “expression of endogenous fra-1 upon stimulation” value in the assay with endogenous fra-1 is on record as “induced”.
